# In PubChem BioAssay (NCI):
#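 In this assay, cells in 96-well plates receive the compound at five concentrations for 48 hours. Endpoints are linearly interpolated between the surrounding concentrations. GI50 is the concentration that inhibits growth by half. TGI marks complete inhibition of growth.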
# Experiments:
# Test in all cases: NCI tumour cell line growth inhibition, 48 h
# RXF 393 renal = test system: RXF 393 renal
# SN12C renal = test system: SN12C renal
# RPMI-8226 leukemia = test system: RPMI-8226 leukemia
# MCF7 breast = test system: MCF7 breast
# MDA-MB-231 breast = test system: MDA-MB-231 breast
# U251 CNS = test system: U251 CNS
# HOP-62 NSCLC = test system: HOP-62 NSCLC
# CAKI-1 renal = test system: CAKI-1 renal
# SW-620 colon = test system: SW-620 colon
# DU-145 prostate = test system: DU-145 prostate
# UO-31 renal = test system: UO-31 renal
# HT29 colon = test system: HT29 colon
# K-562 leukemia = test system: K-562 leukemia
# OVCAR-8 ovarian = test system: OVCAR-8 ovarian
# IGROV1 ovarian = test system: IGROV1 ovarian
# M14 melanoma = test system: M14 melanoma
# SF-295 CNS = test system: SF-295 CNS
# SR leukemia = test system: SR leukemia
# HCT-116 colon = test system: HCT-116 colon
# BT-549 breast = test system: BT-549 breast
# NCI-H23 lung = test system: NCI-H23 lung
# HL-60(TB) leukemia = test system: HL-60(TB) leukemia
# HCC-2998 colon = test system: HCC-2998 colon
# MDA-MB-435 = test system: MDA-MB-435
# HOP-92 NSCLC = test system: HOP-92 NSCLC
# SF-268 CNS = test system: SF-268 CNS
# KM12 colon = test system: KM12 colon
# NCI-H522 lung = test system: NCI-H522 lung
# LOX IMVI melanoma = test system: LOX IMVI melanoma
# T-47D breast = test system: T-47D breast
# SK-MEL-2 melanoma = test system: SK-MEL-2 melanoma
# SNB-19 CNS = test system: SNB-19 CNS
# HS 578T breast = test system: HS 578T breast
# UACC-257 melanoma = test system: UACC-257 melanoma
# NCI-H460 lung = test system: NCI-H460 lung
# SNB-75 CNS = test system: SNB-75 CNS
# EKVX NSCLC = test system: EKVX NSCLC
# OVCAR-3 ovarian = test system: OVCAR-3 ovarian
# COLO 205 colon = test system: COLO 205 colon
# ACHN renal = test system: ACHN renal
# NCI-H226 lung = test system: NCI-H226 lung
# A549 NSCLC = test system: A549 NSCLC
# CCRF-CEM leukemia = test system: CCRF-CEM leukemia
# SK-MEL-5 melanoma = test system: SK-MEL-5 melanoma
# OVCAR-5 ovarian = test system: OVCAR-5 ovarian
# PC-3 prostate = test system: PC-3 prostate
# UACC-62 melanoma = test system: UACC-62 melanoma
# SF-539 CNS = test system: SF-539 CNS
# OVCAR-4 ovarian = test system: OVCAR-4 ovarian
# MALME-3M melanoma = test system: MALME-3M melanoma
# NCI/ADR-RES ovarian = test system: NCI/ADR-RES ovarian
# MOLT-4 leukemia = test system: MOLT-4 leukemia
# TK-10 renal = test system: TK-10 renal
# HCT-15 colon = test system: HCT-15 colon
# MDA-MB-468 breast = test system: MDA-MB-468 breast
# SK-OV-3 ovarian = test system: SK-OV-3 ovarian
# 786-0 renal = test system: 786-0 renal
# A498 renal = test system: A498 renal
# SK-MEL-28 melanoma = test system: SK-MEL-28 melanoma
smiles,measurement,setting,value
CC1(c2ccccc2)NC(=O)N(CC(=O)Nc2ccc(C(=O)/C=C/c3ccc(Cl)cc3)cc2)C1=O (stereo not drawn),GI50,RXF 393 renal,2.97 µM
same,TGI,RXF 393 renal,13.6 µM
same,GI50,SN12C renal,7.96 µM
same,TGI,SN12C renal,25.4 µM
same,GI50,RPMI-8226 leukemia,1.93 µM
same,TGI,RPMI-8226 leukemia,5.07 µM
same,GI50,MCF7 breast,1.96 µM
same,TGI,MCF7 breast,5.28 µM
same,GI50,MDA-MB-231 breast,5.97 µM
same,TGI,MDA-MB-231 breast,21.6 µM
same,GI50,U251 CNS,3.16 µM
same,TGI,U251 CNS,14.3 µM
same,GI50,HOP-62 NSCLC,12.5 µM
same,TGI,HOP-62 NSCLC,29.8 µM
same,GI50,CAKI-1 renal,5.51 µM
same,TGI,CAKI-1 renal,20.7 µM
same,GI50,SW-620 colon,5.93 µM
same,TGI,SW-620 colon,20.7 µM
same,GI50,DU-145 prostate,12.3 µM
same,TGI,DU-145 prostate,26.2 µM
same,GI50,UO-31 renal,4.06 µM
same,TGI,UO-31 renal,18 µM
same,GI50,HT29 colon,3.7 µM
same,TGI,HT29 colon,15.7 µM
same,GI50,K-562 leukemia,3.09 µM
same,TGI,K-562 leukemia,13.1 µM
same,GI50,OVCAR-8 ovarian,10.7 µM
same,TGI,OVCAR-8 ovarian,52.5 µM
same,GI50,IGROV1 ovarian,9.27 µM
same,TGI,IGROV1 ovarian,22.3 µM
same,GI50,M14 melanoma,3.22 µM
same,TGI,M14 melanoma,12 µM
same,GI50,SF-295 CNS,4.34 µM
same,TGI,SF-295 CNS,16.6 µM
same,GI50,SR leukemia,2.99 µM
same,TGI,SR leukemia,> 100 µM
same,GI50,HCT-116 colon,1.37 µM
same,TGI,HCT-116 colon,2.8 µM
same,GI50,BT-549 breast,4.78 µM
same,TGI,BT-549 breast,19 µM
same,GI50,NCI-H23 lung,11.7 µM
same,TGI,NCI-H23 lung,24.8 µM
same,GI50,HL-60(TB) leukemia,4.06 µM
same,TGI,HL-60(TB) leukemia,30.9 µM
same,GI50,HCC-2998 colon,1.79 µM
same,TGI,HCC-2998 colon,3.63 µM
same,GI50,MDA-MB-435,2.15 µM
same,TGI,MDA-MB-435,4.83 µM
same,GI50,HOP-92 NSCLC,6.25 µM
same,TGI,HOP-92 NSCLC,53.7 µM
same,GI50,SF-268 CNS,6.51 µM
same,TGI,SF-268 CNS,31.5 µM
same,GI50,KM12 colon,2.54 µM
same,TGI,KM12 colon,6.87 µM
same,GI50,NCI-H522 lung,6.69 µM
same,TGI,NCI-H522 lung,30 µM
same,GI50,LOX IMVI melanoma,2.95 µM
same,TGI,LOX IMVI melanoma,11.1 µM
same,GI50,T-47D breast,2.59 µM
same,TGI,T-47D breast,14.6 µM
same,GI50,SK-MEL-2 melanoma,11.5 µM
same,TGI,SK-MEL-2 melanoma,28 µM
same,GI50,SNB-19 CNS,11.2 µM
same,TGI,SNB-19 CNS,24.4 µM
same,GI50,HS 578T breast,12.7 µM
same,TGI,HS 578T breast,> 100 µM
same,GI50,UACC-257 melanoma,11.3 µM
same,TGI,UACC-257 melanoma,25.7 µM
same,GI50,NCI-H460 lung,12 µM
same,TGI,NCI-H460 lung,27.8 µM
same,GI50,SNB-75 CNS,1.48 µM
same,TGI,SNB-75 CNS,21.8 µM
same,GI50,EKVX NSCLC,4.64 µM
same,TGI,EKVX NSCLC,23.5 µM
same,GI50,OVCAR-3 ovarian,7.1 µM
same,TGI,OVCAR-3 ovarian,21.9 µM
same,GI50,COLO 205 colon,13.2 µM
same,TGI,COLO 205 colon,29.7 µM
same,GI50,ACHN renal,4.92 µM
same,TGI,ACHN renal,17.7 µM
same,GI50,NCI-H226 lung,9.09 µM
same,TGI,NCI-H226 lung,52.3 µM
same,GI50,A549 NSCLC,4.25 µM
same,TGI,A549 NSCLC,20 µM
same,GI50,CCRF-CEM leukemia,4 µM
same,TGI,CCRF-CEM leukemia,30.8 µM
same,GI50,SK-MEL-5 melanoma,4.72 µM
same,TGI,SK-MEL-5 melanoma,16.6 µM
same,GI50,OVCAR-5 ovarian,13.3 µM
same,TGI,OVCAR-5 ovarian,29 µM
same,GI50,PC-3 prostate,3.61 µM
same,TGI,PC-3 prostate,27.6 µM
same,GI50,UACC-62 melanoma,4.07 µM
same,TGI,UACC-62 melanoma,17.8 µM
same,GI50,SF-539 CNS,6.15 µM
same,TGI,SF-539 CNS,19.1 µM
same,GI50,OVCAR-4 ovarian,7.35 µM
same,TGI,OVCAR-4 ovarian,36.1 µM
same,GI50,MALME-3M melanoma,13.1 µM
same,TGI,MALME-3M melanoma,30.8 µM
same,GI50,NCI/ADR-RES ovarian,13.5 µM
same,TGI,NCI/ADR-RES ovarian,46.4 µM
same,GI50,MOLT-4 leukemia,3.02 µM
same,TGI,MOLT-4 leukemia,23.1 µM
same,GI50,TK-10 renal,10.8 µM
same,TGI,TK-10 renal,35.4 µM
same,GI50,HCT-15 colon,4.55 µM
same,TGI,HCT-15 colon,18.4 µM
same,GI50,MDA-MB-468 breast,2.85 µM
same,TGI,MDA-MB-468 breast,12.3 µM
same,GI50,SK-OV-3 ovarian,16 µM
same,TGI,SK-OV-3 ovarian,44.6 µM
same,GI50,786-0 renal,7.48 µM
same,TGI,786-0 renal,21 µM
same,GI50,A498 renal,14.4 µM
same,TGI,A498 renal,38.2 µM
same,GI50,SK-MEL-28 melanoma,10.8 µM
same,TGI,SK-MEL-28 melanoma,23.2 µM
